From PubChem BioAssay (NCI)
“And” between values parts separate entries of the source, which are not always exact repeats. Equal values may be shown once.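 Step 1: Grow cells in 96-well plates. Step 2: Expose to compound for 48 hours at 5 concentrations. Step 3: Interpolate endpoints linearly; if unreached, use highest concentration. At the GI50, growth is halved. The concentration for full growth arrest is given as TGI.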

Test system: MDA-MB-468 breast
Assay: DTP human tumour cell line panel, 48 h

For `CC(=O)OCC1OC(n2ccc(=O)[nH]c2=O)C(OC(C)=O)C1OC(C)=O` (configuration not stated), the GI50 was greater than 100 µM and the TGI was greater than 100 µM.

`CC(=C(c1ccc(OCCN(C)C)cc1)c1ccc(OCCN(C)C)cc1)c1ccc(Cl)cc1` showed a GI50 of 0.827 µM and a TGI of 3.24 µM.

Compound `CCCCN(Cc1ccc(F)cc1)c1ccc(CO)c(Cl)c1` has a GI50 of 0.167 µM and a TGI of 0.449 µM.

For `Nc1cc(N)c(N)cc1N`, the GI50 was 1.8 µM and the TGI was 4.48 µM.

Compound `CC(=O)Oc1ccccc1C(=O)Nc1cc(C(C)C)ccc1C` has a GI50 of 2.49 µM and a TGI of 8.38 µM.

Compound `C#CC[C@@H]1C[C@]2(C)[C@H]3CC=C4[C@H]5CC(C)(C)CC[C@]5(C(=O)NCCCCN)CC[C@@]4(C)[C@]3(C)CC[C@H]2C(C)(C)[C@H]1OC(C)=O` has a GI50 of 1.71 µM and a TGI of 3.27 µM.

Compound `C[C@H]1[C@H](C)CC[C@]2(C(=O)O)CC[C@]3(C)C(=CC[C@@H]4[C@@]5(C)C/C(=C/c6cccnc6)[C@H](O)C(C)(C)[C@@H]5CC[C@]43C)[C@H]12` has a GI50 of 19.8 µM and a TGI of 80.1 µM.

`CN(C)c1ccc(/C=C/C=C(/C#N)c2ccccc2)cc1` gave a GI50 of 17.5 µM and a TGI of 67.7 µM.

Compound `Cc1nc2sc(C(=O)Nc3ccccc3)c(N)c2cc1C(=O)/C=C/c1ccccc1` has a GI50 of 1.73 µM and a TGI of 3.82 µM.

With `CN(C)c1ccc2cc(-c3ccccc3F)c(N)nc2c1` the GI50 was 0.542 µM and the TGI was 12.2 µM.

Compound `C[C@@H]1COCCN1c1cc(C2(S(C)(=N)=O)CC2)nc(-c2ccnc3[nH]ccc23)n1` (some centres not stated) has a GI50 of 3.92 µM and a TGI of 25 µM.

Work on `COC(=O)CNC(=O)[C@@H](OC)[C@@H]1Cc2cc3cc(OC4CC(OC5CC(O)C(O)C(C)O5)C(O)C(C)O4)c(C)c(O)c3c(O)c2C(=O)[C@H]1OC1CC(OC2CC(OC3CC(C)(O)C(O)C(C)O3)C(O)C(C)O2)C(O)C(C)O1` (some centres not stated) yielded a GI50 of 0.162 µM and a TGI of 1.31 µM.

Work on `C=C1C(=O)O[C@H]2[C@H]1CC/C(COC(=O)N1CCC[C@H]1C(=O)Nc1ccc(OC)c(C(N)=O)c1O)=C\CC[C@@]1(C)O[C@@H]21` yielded a GI50 of 1.06 µM and a TGI of 3.46 µM.

`Fc1ccc2[nH]c3c(NCCCN4CCOCC4)ncnc3c2c1` showed a GI50 of 20.4 µM and a TGI greater than 100 µM.

In the case of `O=C(CCl)N1c2ccccc2Sc2c1ccc1ccccc21`, the GI50 is reported as 2.09 µM and the TGI is reported as 3.95 µM.

For `CN(CCOc1ccc(C#N)cc1)CCOc1ccc(C#N)cc1`, the GI50 was 27.5 µM and the TGI was greater than 100 µM.

In the case of `CCCCCCCCCCCC[n+]1ccc(CCCCCCCCC)cc1`, the GI50 is reported as 0.253 µM and the TGI is reported as 0.833 µM.

`OCc1ccc(-c2nn(Cc3ccccc3)c3ccccc23)o1` showed a GI50 of 0.11 µM and a TGI of 0.287 µM.

`CC1OC2CC(=O)OC2C2=C1C(=O)c1c(O)c3c(c(O)c1C2=O)C1CC(O)C3(O)C(C)O1` (configuration not stated) was tested, and the GI50 was 0.229 µM and the TGI was 0.618 µM.

With `Cc1cc(C(C#N)c2ccc(Cl)cc2)c(Cl)cc1NC(=O)c1cc(I)cc(I)c1O` (configuration not stated) the GI50 was 4.31 µM and 15.3 µM and the TGI was 18 µM and 30 µM.

`c1cnc2[nH]cc(-c3csc(-c4cn(CCCCN5CCOCC5)c5ccccc45)n3)c2c1` gave a GI50 of 2.07 µM and a TGI of 3.99 µM.

For `Oc1ccc(CCCCCCc2ccc(O)cc2)cc1`, the GI50 was 12.7 µM and the TGI was 32.9 µM.

In the case of `COc1cc(Nc2nc(N[C@H]3CCCC[C@@H]3N)nc3cc[nH]c(=O)c23)cc(OC)c1`, the GI50 is reported as 0.26 µM and the TGI is reported as 0.854 µM.

For `CN(C)C(=S)N=Nc1c(O)[nH]c2ccccc12`, the GI50 was 0.482 µM and the TGI was 3.46 µM.

Compound `CC(C)(C)c1ccc(S(=O)(=O)N[C@H]2CC[C@H]3[C@@H]4CCc5cc(OS(=O)(=O)O)ccc5[C@H]4CC[C@]23C)cc1` has a GI50 of 2.05 µM and a TGI of 5.59 µM.

In the case of `c1n[nH]cc1-c1nc2ccc3[nH]ncc3c2c2c1CCCC2`, the GI50 is reported as 1.36 µM and the TGI is reported as 3.6 µM.

`CCN(Cc1ccccc1OC)c1ccc(CO)c(Cl)c1` was tested, and the GI50 was 0.0372 µM and the TGI was 0.214 µM.

Compound `CSc1ccc(/C=C2\N=C(c3ccccc3)N(c3nc4ccc(Sc5ccccc5)cc4[nH]3)C2=O)cc1` has a GI50 of 4.44 µM and a TGI of 25.8 µM.

Work on `COc1cc[nH]c1/C=C1\C(=O)Nc2ccc(F)c(I)c21` yielded a GI50 greater than 5.39 µM and a TGI greater than 25 µM.

In the case of `O=C1/C(=C/c2ccc(O)cc2)COc2ccc(-c3ccccc3)cc21`, the GI50 is reported as 3.32 µM and the TGI is reported as 11.4 µM.

In the case of `COc1ccc(-c2cn(-c3ccccc3)c(-c3ccccc3)n2)cc1OC`, the GI50 is reported as 4.9 µM and the TGI is reported as 21.9 µM.
